We go through two compounds from ChEMBL document CHEMBL4507268 (2021).

Structures are written as SMILES.

By inhibition is commonly meant the change of the read-out against control, counted positive when it falls.

For assay [1], the target named is Calcium/calmodulin-dependent protein kinase type 1B (Homo sapiens) (UniProt Q6P2M8). The note with it: Compound concentration 1000.0 nM.
Assay [2] addresses Sigma non-opioid intracellular receptor 1 (Homo sapiens, UniProt Q99720). The note with it: Compound concentration 10.0 uM.
In assay [3] the target is RAC-alpha serine/threonine-protein kinase (Homo sapiens) (UniProt P31749). The note with it: Compound concentration 1000.0 nM.
In assay [4] the target is Tyrosine-protein kinase ABL2 (Homo sapiens) (UniProt P42684). The note with it: Compound concentration 1000.0 nM.
The target of assay [5] is Ribosomal protein S6 kinase beta-1 (Homo sapiens) (UniProt P23443). The note with it: Compound concentration 1000.0 nM.
Assay [6] concerns Receptor-type tyrosine-protein kinase FLT3 (Homo sapiens), P36888 [D835Y]. The note with it: Compound concentration 1000.0 nM.
In assay [7] the target is Phosphatidylinositol 4-kinase beta (Homo sapiens) (UniProt Q9UBF8). The note with it: Compound concentration 1000.0 nM.
Assay [8] has as its target Serine/threonine-protein kinase RIO3 (Homo sapiens) (UniProt O14730). The note with it: Compound concentration 1000.0 nM.
The target of assay [9] is Beta-1 adrenergic receptor (Homo sapiens) (UniProt P08588). The note with it: Compound concentration 10.0 uM.
In assay [10] the target is Serine/threonine-protein kinase PLK2 (Homo sapiens) (UniProt Q9NYY3). The note with it: Compound concentration 1000.0 nM.
Assay [11] deals with MAP kinase-interacting serine/threonine-protein kinase 1 (Homo sapiens) (UniProt Q9BUB5). The note with it: Compound concentration 1000.0 nM.
Assay [12] has as its target T1, Cyclin-dependent kinase-like 2 (Homo sapiens) (UniProt Q92772).
T1 sequence (whole entry): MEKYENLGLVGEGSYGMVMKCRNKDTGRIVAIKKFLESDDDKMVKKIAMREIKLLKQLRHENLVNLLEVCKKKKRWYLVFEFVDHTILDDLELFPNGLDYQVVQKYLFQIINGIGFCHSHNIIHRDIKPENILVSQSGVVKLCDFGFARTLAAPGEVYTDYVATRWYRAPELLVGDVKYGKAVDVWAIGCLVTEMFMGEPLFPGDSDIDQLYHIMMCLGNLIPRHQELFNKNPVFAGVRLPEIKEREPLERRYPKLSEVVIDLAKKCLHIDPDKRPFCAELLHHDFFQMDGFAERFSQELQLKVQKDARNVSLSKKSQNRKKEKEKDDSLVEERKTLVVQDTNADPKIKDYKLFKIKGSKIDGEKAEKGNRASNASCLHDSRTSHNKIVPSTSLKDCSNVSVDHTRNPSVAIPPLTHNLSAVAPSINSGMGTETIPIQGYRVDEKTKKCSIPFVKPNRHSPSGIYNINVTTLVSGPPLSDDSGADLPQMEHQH
The note with it: Compound concentration 1000.0 nM.

The target of assay [13] is Mitotic checkpoint serine/threonine-protein kinase BUB1 (Homo sapiens) (UniProt O43683). The note with it: Compound concentration 1000.0 nM.
For assay [14], the target named is T2, Serine/threonine-protein kinase D1 (Homo sapiens) (UniProt Q15139).
T2 sequence (whole entry): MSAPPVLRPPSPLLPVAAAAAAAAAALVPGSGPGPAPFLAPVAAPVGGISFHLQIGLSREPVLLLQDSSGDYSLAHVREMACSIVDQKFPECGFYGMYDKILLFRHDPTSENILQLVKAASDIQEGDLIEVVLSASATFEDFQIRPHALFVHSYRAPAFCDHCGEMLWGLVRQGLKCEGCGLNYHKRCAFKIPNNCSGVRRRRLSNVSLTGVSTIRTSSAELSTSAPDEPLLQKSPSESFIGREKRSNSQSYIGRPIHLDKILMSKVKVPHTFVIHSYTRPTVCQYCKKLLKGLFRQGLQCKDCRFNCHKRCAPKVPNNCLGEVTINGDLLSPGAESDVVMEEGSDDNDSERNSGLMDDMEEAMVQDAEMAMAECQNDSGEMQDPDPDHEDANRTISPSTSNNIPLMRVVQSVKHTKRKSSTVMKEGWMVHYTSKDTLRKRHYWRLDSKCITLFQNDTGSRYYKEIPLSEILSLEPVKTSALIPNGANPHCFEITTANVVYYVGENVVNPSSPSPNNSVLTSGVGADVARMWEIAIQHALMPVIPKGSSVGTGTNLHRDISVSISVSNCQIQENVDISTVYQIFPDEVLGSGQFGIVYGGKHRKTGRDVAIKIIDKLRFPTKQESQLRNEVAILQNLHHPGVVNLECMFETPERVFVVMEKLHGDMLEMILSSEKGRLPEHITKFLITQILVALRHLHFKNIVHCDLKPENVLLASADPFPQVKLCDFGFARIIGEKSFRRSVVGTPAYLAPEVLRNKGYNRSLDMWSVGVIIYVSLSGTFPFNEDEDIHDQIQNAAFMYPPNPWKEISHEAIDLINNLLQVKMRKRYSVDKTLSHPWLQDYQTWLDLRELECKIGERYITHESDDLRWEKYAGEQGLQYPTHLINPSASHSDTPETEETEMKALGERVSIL
The note with it: Compound concentration 1000.0 nM.

In assay [15] the test system is Phosphatidylinositol 4,5-bisphosphate 3-kinase catalytic subunit alpha isoform (Homo sapiens), P42336 [H1047L]. The note with it: Compound concentration 1000.0 nM.
Assay [16] has as its target Tyrosine-protein kinase Lyn (Homo sapiens) (UniProt P07948). The note with it: Compound concentration 1000.0 nM.
In assay [17] the target is Ribosomal protein S6 kinase alpha-1 (Homo sapiens) (UniProt Q15418). The note with it: Compound concentration 1000.0 nM.
Assay [18] concerns the target GABA-A receptor; anion channel (Rattus norvegicus) (UniProt O09028+P15431+P18506+P18508+P19969+P20236+P23574+P23576+P28471+P28473+P30191+P62813+P63079+P63138+Q91ZM7+Q9ES14). The note with it: Compound concentration 10.0 uM.
Assay [19] has as its system Proto-oncogene tyrosine-protein kinase receptor Ret (Homo sapiens), P07949 [M918T]. The note with it: Compound concentration 1000.0 nM.
In assay [20] the target is Mitogen-activated protein kinase kinase kinase kinase 1 (Homo sapiens) (UniProt Q92918). The note with it: Compound concentration 1000.0 nM.
Assay [21] concerns the target TRAF2 and NCK-interacting protein kinase (Homo sapiens) (UniProt Q9UKE5). The note with it: Compound concentration 1000.0 nM.
Assay [22] has as its target Ephrin type-A receptor 5 (Homo sapiens) (UniProt P54756). The note with it: Compound concentration 1000.0 nM.
The target in assay [23] is Insulin receptor (Homo sapiens) (UniProt P06213). The note with it: Compound concentration 1000.0 nM.
Assay [24] has as its target Vascular endothelial growth factor receptor 3 (Homo sapiens) (UniProt P35916). The note with it: Compound concentration 1000.0 nM.

Sequence of TRAF2 and NCK-interacting protein kinase (Homo sapiens) (Q9UKE5 whole entry, looked up): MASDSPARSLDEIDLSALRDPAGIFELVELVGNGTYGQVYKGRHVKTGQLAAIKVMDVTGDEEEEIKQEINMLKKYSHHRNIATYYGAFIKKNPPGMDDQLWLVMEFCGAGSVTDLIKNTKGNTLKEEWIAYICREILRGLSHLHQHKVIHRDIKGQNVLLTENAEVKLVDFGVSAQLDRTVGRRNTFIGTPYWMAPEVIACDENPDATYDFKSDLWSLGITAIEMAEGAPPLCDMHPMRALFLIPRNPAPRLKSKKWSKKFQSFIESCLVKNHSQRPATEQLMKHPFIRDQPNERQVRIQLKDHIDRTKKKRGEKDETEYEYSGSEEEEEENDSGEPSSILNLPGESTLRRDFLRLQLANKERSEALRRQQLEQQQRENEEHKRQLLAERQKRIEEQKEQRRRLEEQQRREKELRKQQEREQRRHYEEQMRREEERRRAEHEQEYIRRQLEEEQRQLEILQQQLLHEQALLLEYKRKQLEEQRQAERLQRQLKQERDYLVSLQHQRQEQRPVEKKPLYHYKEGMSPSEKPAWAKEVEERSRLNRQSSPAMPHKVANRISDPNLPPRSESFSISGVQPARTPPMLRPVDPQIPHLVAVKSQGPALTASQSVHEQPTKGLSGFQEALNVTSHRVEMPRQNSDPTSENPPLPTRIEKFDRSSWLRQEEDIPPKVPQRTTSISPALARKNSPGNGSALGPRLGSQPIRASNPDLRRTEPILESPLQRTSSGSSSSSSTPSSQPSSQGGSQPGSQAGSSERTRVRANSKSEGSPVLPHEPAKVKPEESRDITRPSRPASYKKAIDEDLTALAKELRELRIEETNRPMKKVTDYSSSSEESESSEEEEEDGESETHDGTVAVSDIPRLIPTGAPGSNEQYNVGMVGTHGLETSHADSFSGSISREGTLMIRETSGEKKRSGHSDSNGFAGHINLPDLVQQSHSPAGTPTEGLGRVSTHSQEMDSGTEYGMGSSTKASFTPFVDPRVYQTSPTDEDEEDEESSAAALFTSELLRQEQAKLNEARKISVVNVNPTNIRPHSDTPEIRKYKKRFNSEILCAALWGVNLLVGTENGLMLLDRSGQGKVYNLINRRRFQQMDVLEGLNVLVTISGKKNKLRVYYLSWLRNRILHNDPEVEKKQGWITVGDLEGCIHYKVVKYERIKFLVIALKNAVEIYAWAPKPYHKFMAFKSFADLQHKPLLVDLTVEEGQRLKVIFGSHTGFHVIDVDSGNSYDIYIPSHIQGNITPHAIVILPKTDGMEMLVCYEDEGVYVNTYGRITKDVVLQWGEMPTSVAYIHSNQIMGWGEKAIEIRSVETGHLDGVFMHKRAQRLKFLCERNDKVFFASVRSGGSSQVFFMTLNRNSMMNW
Sequence of Tyrosine-protein kinase ABL2 (Homo sapiens) (P42684 whole entry): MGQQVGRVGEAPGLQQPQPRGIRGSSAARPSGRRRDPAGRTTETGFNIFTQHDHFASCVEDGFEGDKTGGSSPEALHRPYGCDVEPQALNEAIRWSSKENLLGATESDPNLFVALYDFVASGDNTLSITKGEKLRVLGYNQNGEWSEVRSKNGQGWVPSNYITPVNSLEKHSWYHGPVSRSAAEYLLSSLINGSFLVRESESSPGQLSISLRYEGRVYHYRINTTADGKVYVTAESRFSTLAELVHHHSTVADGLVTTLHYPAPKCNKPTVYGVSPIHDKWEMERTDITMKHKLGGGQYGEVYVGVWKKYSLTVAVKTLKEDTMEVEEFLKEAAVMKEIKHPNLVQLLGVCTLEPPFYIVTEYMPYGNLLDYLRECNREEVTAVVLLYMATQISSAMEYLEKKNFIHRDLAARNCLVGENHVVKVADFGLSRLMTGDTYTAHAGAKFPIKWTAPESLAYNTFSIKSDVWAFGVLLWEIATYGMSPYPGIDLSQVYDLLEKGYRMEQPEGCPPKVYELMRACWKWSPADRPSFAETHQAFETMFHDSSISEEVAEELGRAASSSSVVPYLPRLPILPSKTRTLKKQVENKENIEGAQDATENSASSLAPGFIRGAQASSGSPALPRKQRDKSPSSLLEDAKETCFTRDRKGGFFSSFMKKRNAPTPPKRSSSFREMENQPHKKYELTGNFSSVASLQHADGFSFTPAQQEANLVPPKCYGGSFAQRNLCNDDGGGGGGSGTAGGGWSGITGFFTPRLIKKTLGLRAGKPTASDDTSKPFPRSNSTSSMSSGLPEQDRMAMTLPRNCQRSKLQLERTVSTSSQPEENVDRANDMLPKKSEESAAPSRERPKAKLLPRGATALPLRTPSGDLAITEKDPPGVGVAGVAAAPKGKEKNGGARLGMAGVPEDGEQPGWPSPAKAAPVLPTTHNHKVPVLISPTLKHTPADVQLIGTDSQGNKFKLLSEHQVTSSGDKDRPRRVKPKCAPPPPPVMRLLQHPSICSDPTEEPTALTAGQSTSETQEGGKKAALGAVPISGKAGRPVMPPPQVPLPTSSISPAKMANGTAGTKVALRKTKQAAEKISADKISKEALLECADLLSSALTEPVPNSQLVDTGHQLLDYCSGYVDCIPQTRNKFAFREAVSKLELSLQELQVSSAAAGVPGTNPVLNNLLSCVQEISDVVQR
Sequence of Phosphatidylinositol 4-kinase beta (Homo sapiens) (Q9UBF8 2-816 limits assumed): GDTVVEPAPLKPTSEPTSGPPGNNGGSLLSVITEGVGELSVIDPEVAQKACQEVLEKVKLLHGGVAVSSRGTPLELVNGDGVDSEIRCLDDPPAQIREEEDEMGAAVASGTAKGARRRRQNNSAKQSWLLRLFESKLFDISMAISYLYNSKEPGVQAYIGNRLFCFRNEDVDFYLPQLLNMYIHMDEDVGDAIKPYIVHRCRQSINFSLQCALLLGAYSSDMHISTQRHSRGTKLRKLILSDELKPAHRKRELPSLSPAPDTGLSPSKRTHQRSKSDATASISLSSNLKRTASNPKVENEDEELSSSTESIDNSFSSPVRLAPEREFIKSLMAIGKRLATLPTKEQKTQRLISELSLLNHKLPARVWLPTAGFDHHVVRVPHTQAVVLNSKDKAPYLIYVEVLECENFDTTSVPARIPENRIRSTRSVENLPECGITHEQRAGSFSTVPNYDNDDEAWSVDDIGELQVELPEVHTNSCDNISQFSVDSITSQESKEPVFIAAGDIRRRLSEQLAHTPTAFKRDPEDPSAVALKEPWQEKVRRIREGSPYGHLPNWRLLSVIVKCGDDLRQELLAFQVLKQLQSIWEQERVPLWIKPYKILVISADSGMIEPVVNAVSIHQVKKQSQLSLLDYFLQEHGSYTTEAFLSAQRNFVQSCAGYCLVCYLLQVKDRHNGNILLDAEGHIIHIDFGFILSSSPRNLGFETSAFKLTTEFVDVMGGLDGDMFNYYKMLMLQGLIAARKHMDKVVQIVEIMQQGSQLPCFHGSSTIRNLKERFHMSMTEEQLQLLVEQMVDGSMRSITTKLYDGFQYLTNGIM
Sequence of Tyrosine-protein kinase Lyn (Homo sapiens) (P07948 2-512 limits assumed): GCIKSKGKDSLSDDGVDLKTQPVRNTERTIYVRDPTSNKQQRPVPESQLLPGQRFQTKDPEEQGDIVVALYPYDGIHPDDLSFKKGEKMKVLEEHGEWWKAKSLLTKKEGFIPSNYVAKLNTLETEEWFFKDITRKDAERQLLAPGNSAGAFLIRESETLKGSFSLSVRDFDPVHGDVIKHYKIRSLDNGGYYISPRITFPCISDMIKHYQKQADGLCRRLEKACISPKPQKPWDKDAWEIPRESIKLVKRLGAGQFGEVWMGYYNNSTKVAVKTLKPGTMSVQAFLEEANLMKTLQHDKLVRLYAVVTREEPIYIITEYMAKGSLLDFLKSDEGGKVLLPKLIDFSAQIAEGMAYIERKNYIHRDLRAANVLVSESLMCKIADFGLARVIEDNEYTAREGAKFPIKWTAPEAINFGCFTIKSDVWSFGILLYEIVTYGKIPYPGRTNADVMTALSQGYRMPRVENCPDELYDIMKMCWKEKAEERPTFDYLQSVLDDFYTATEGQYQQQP
Sequence of Ephrin type-A receptor 5 (Homo sapiens) (P54756 whole entry): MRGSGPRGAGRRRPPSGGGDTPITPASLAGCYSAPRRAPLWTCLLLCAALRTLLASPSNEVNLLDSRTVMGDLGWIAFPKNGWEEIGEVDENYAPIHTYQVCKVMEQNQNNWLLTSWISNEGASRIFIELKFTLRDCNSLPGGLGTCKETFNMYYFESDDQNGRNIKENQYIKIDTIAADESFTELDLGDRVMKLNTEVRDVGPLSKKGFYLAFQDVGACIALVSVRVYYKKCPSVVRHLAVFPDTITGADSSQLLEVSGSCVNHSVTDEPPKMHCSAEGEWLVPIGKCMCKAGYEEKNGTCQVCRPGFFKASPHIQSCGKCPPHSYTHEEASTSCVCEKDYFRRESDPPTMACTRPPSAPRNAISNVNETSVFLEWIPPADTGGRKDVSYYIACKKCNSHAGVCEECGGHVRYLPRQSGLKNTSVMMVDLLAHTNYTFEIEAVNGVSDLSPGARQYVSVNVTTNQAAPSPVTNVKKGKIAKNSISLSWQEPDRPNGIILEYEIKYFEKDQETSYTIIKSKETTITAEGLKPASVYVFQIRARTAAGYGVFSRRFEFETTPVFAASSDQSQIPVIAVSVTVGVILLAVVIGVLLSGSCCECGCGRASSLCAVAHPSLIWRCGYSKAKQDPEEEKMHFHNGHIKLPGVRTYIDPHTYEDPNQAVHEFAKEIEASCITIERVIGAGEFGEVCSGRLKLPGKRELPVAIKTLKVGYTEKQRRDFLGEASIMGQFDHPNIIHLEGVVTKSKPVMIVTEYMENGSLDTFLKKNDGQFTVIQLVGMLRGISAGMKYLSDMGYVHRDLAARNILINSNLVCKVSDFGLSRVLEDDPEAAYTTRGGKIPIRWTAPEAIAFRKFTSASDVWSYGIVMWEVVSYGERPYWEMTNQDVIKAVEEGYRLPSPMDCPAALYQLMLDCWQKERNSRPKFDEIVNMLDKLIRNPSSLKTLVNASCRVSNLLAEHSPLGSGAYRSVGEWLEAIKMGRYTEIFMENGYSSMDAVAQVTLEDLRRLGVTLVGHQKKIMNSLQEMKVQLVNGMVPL

As to `Cc1nc(C2CCN(C(=O)c3ccc(OC(F)(F)F)cc3N)CC2)c2ncc(N3CCN(C)CC3)cc2n1` [BAY-693], the residual activity is 100% in [1]; 100% in assay [3]; 93% in assay [4]; 99% in assay [5]; 97% in assay [6]; 84% in [7]. The residual activity is 87% in assay [8]; 74% in [10]; 100% in assay [11]; 100% in assay [12]; 96% in assay [13]; 79% in assay [14]. Further, the residual activity in assay [15] was 87%; in [16], 100%; in assay [17], 93%; in [19], 86%; in assay [20] it was 96%; in assay [21], 100%. For the same compound, the residual activity in assay [22] was 99%; in assay [23] it was 93%; in assay [24], 75%. For the same compound, the inhibition in assay [2] was 72.7%; in assay [9] it was 17.9%; in [18], -1.64%.

On to `CN1CCN(c2cnc3c(C4CCN(C(=O)c5ccc(OC(F)(F)F)cc5N)CC4)ncnc3c2)CC1` [BAY-885], for which the residual activity is 100% in assay [1]; 100% in [3]; 100% in assay [4]; 90% in [5]; 100% in [6]; 96% in [7]. The residual activity in assay [8] is 97%; in assay [10] it was 93%; in assay [11] it was 100%; in [12], 100%; in assay [13] it was 93%; in assay [14], 85%. The residual activity was 100% in [15]; 75% in [16]; 100% in [17]; 100% in [19]; 88% in [20]; 100% in assay [21]. Moreover, the residual activity is 91% in [22], 88% in assay [23] and 100% in assay [24]. Further, the inhibition in assay [2] was 72.4%; in assay [9], 12.6%; in assay [18] it was 0.38%.
